The term IC50 denotes the concentration that inhibits the measured activity by half.

Positions count from the first letter of the chain named.

13 compounds from patent publication US20240010635A1, “NOVEL INDIRUBIN DERIVATIVES HAVING HETEROBICYCLIC MOIETIES AND THE USE THEREOF” (priority 2022, published 2024) can be followed below.

Common to all, as to assay type: biochemical
One assay has as its target T1, RET M918T (Homo sapiens, UniProt P07949, M918T).
T1 construct: Recombinant proteins containing RET wt, RET (M918T) and RET (V804L) domains were purchased from Promega; purchased Promega VA7274
T1 sequence (P07949 724-1016 M918T limits assumed): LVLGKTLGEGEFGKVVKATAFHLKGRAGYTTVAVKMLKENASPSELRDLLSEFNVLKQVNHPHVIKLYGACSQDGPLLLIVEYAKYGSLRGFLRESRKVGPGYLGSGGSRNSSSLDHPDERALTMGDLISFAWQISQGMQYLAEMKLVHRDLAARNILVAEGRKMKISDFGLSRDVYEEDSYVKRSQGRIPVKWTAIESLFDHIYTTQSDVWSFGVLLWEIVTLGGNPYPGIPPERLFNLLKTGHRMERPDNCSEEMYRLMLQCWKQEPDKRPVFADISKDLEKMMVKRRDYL
In words: ADP-Glo kinase assay, RET M918T. The note with it: recombinant RET (M918T), 120 min room temperature, read-out: Enzyme activity (IC50, nM) RET M918T. Here is the method: (§1) Analysis performed in two steps. First, after kinase reaction, ADP-Glo™ reagent of equal volume was added to finish kinase reaction, and then the rest ATP was exhausted. Second, Kinase Detection Reagent was added to convert ADP to ATP and newly synthesized ATP was measured by luciferase/luciferin reaction at the same time. Generated light was measured by using luminometer. The measured luminescence amount can be applied to the ATP→ADP standard conversion curve to confirm the correlation with the ADP concentration.
(§2) Recombinant proteins containing RET wt, RET (M918T) and RET (V804L) domains were purchased from Promega (cat #V8061, cat #VA7274, cat #V4473), respectively. According to the manufacturer's instructions, optimal enzyme, ATP, and substrate concentration were established using ADP-Glo™ Kinase Assay (Promega, USA). […] Then, ADP-Glo™ Reagent (5 μl) was added and reacted at room temperature for further 40 min. Lastly, Kinase Detection Reagent (10 μl) was added and reacted for 30 min more at room temperature, and then phosphorylation of substrate peptide was measured by measuring luciferase signal (Integration time 0.5-1 second) using SpectraMax ID5 reader (Molecular Devices LLC., San Jose, CA, USA). IC50 was calculated by nonlinear regression using Prism version 5.01 (GrapghPad).

A further assay addresses T2, FLT3 WT (Homo sapiens, UniProt P36888).
T2 construct: Recombinant proteins containing the FLT3 and FLT3 (D835Y) domains were purchased from Promega; purchased Promega V4064
T2 sequence (P36888 610-943 limits assumed): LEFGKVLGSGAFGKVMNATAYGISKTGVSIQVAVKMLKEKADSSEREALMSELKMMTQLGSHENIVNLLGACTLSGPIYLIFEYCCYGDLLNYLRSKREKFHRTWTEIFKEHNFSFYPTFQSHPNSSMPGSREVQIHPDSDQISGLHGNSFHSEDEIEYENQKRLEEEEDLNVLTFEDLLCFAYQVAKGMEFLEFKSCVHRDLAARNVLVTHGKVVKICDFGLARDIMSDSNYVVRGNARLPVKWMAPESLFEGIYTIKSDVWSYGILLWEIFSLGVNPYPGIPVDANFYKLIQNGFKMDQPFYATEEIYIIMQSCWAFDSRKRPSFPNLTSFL
In words: ADP-Glo kinase assay, FLT3 WT. The note with it: recombinant FLT3, ADP-Glo, 120 min room temperature; read-out: Enzyme activity (IC50, nM) FLT3 WT. Here is the method:
FLT3 activity inhibition was measured by ADP-Glo kinase assay (Promega, cat #V9101). ADP-Glo kinase analysis method is an emission ADP detect method which measures kinase activity by quantification of ADP amount produced during kinase reaction and provides uniform high-throughput screening method.
as §1
Recombinant proteins containing the FLT3 and FLT3 (D835Y) domains were purchased from Promega (cat #V4064, cat #V4514), respectively. According to the manufacturer's instructions, optimal enzyme, ATP, and substrate concentration were established using the ADP-Glo™ Kinase Assay (Promega, USA). Kinase reaction buffer 5× (200 mM Tris-HCl, pH 7.5, 100 mM MgCl2, 0.5 mg/ml BSA) was diluted and used, and the diluted compound of the present invention (5×, 1 μl), FLT3 enzyme or FLT3/D835Y enzyme (2.5×, 2 μl) and substrate/ATP mixture (2.5×, 2 μl), were mixed sequentially and reacted at room temperature for 120 minutes. Then, ADP-Glo™ Reagent (5 μl) was added and reacted for 40 min at room temperature. Finally, after adding a reagent for detection (Kinase Detection Reagent, 10 μl), reacting at room temperature for 30 min, and then phosphorylation of substrate peptide was measured by measuring luciferase signal (Integration time 0.5-1 second) using SpectraMax ID5 reader (Molecular Devices LLC., San Jose, CA, USA). IC50 was calculated by nonlinear regression using Prism version 5.01 (GrapghPad).
For orientation: In ADP-Glo the light output rises with the ADP produced.

The target in a further assay is T3, RET V804L (Homo sapiens, UniProt P07949, V804L).
T3 construct: Recombinant proteins containing RET wt, RET (M918T) and RET (V804L) domains were purchased from Promega; purchased Promega V4473
T3 sequence (P07949 724-1016 V804L limits assumed): T1 sequence (P07949 724-1016 M918T limits assumed) with V81L, T195M
Kind of assay: ADP-Glo kinase assay, RET V804L. The note with it: recombinant RET (V804L), 120 min room temperature, read-out: Enzyme activity (IC50, nM) RET V804L. On the procedure:
as §1, §2

A further assay concerns the target T4, RET WT (Homo sapiens, UniProt P07949).
T4 construct: Recombinant proteins containing RET wt, RET (M918T) and RET (V804L) domains were purchased from Promega; purchased Promega V8061
T4 sequence (P07949 724-1016 limits assumed): T1 sequence (P07949 724-1016 M918T limits assumed) with T195M
Kind of assay: ADP-Glo kinase assay, RET WT. The note with it: recombinant RET wt, 120 min room temperature, read-out: Enzyme activity (IC50, nM) RET WT. Here is the method: as §1, §2

`O=C1Nc2ccccc2/C1=C1/Nc2ccccc2/C1=N\OCCN1CC2(CNC2)C1` [Example 1, (2Z,3E)-3-((2-(2,6-diazaspiro[3.3]heptan-2-yl)ethoxy)imino)-[2,3′-biindolinylidene]-2′-one]: the 50% inhibitory concentration (IC50) at RET M918T amounted to 0.449 nM; at FLT3 WT it was 1.42 nM; on RET V804L, 1.3 nM; on RET WT, 1.09 nM.

With `O=C1Nc2ccccc2/C1=C1/Nc2ccccc2/C1=N\OCCN[C@H]1[C@@H]2CNC[C@@H]21` [Example 2, (2Z,3E)-3-((2-((1R,5S,6s)-3-azabicyclo[3.1.0]hexan-6-ylamino)ethoxy)imino)-[2,3′-biindolinylidene]-2′-one], the half-inhibitory concentration (IC50) on RET M918T worked out at 1.25 nM; on FLT3 WT, 2.49 nM; at RET V804L, 0.553 nM; at RET WT it was 0.964 nM.

In the case of `N[C@@H]1[C@H]2CN(CCO/N=C3/C(=C4/C(=O)Nc5ccccc54)Nc4ccccc43)C[C@@H]12` [Example 3, (2Z,3E)-3-((2-((1R,5S,6s)-6-amino-3-azabicyclo[3.1.0]hexan-3-yl)ethoxy)imino)-[2,3′-biindolinylidene]-2′-one], the concentration for half-maximal inhibition (IC50) on RET M918T was 1.02 nM; at FLT3 WT it was 3.78 nM; at RET V804L, 1.27 nM; on RET WT it was 0.969 nM.

Consider `O=C1Nc2ccccc2/C1=C1/Nc2ccccc2/C1=N\OCCN1C[C@H]2C[C@@H]1CN2` [Example 4, (2Z,3E)-3-((2-((1R,4R)-2,5-diazabicyclo[2.2.1]heptan-2-yl)ethoxy)imino)-[2,3′-biindolinylidene]-2′-one], for which the concentration for half-maximal inhibition (IC50) at RET M918T was 0.348 nM; at FLT3 WT, 1.37 nM; at RET V804L, 0.212 nM; on RET WT, 0.423 nM.

`O=C1Nc2ccccc2/C1=C1/Nc2ccccc2/C1=N\OCCN1C[C@@H]2C[C@H]1CN2` [Example 5, (2Z,3E)-3-((2-((1S,4S)-2,5-diazabicyclo[2.2.1]heptan-2-yl)ethoxy)imino)-[2,3′-biindolinylidene]-2′-one]: the IC50 was 0.771 nM at RET M918T, 1.57 nM at FLT3 WT, 0.851 nM at RET V804L and 1.85 nM at RET WT.

On to `O=C1Nc2ccc(F)cc2/C1=C1/Nc2ccccc2/C1=N\OCCN1CC2(CNC2)C1` [Example 6, (2Z,3E)-3-((2-(2,6-diazaspiro[3.3]heptan-2-yl)ethoxy)imino)-5′-fluoro-[2,3′-biindolinylidene]-2′-one], for which the half-maximal inhibitory concentration (IC50) at RET M918T amounted to 0.67 nM; on FLT3 WT it was 2.44 nM; on RET V804L, 0.797 nM; on RET WT, 0.668 nM.

Consider `O=C1Nc2ccc(F)cc2/C1=C1/Nc2ccccc2/C1=N\OCCN[C@H]1[C@@H]2CNC[C@@H]21` [Example 7, (2Z,3E)-3-((2-((1R,5S,6s)-3-azabicyclo[3.1.0]hexan-6-ylamino)ethoxy)imino)-5′-fluoro-[2,3′-biindolinylidene]-2′-one], for which the concentration for half-maximal inhibition (IC50) at RET M918T worked out at 0.666 nM; at FLT3 WT it was 1.47 nM; at RET V804L, 0.742 nM; on RET WT, 1.03 nM.

For the compound `N[C@@H]1[C@H]2CN(CCO/N=C3/C(=C4/C(=O)Nc5ccc(F)cc54)Nc4ccccc43)C[C@@H]12` [Example 8, (2Z,3E)-3-((2-((1R,5S,6s)-6-amino-3-azabicyclo[3.1.0]hexan-3-yl)ethoxy)imino)-5′-fluoro-[2,3′-biindolinylidene]-2′-one], the half-maximal inhibitory concentration (IC50) at RET M918T was 0.344 nM; at FLT3 WT, 1.35 nM; at RET V804L, 0.54 nM; at RET WT it was 0.441 nM.

Take `O=C1Nc2ccc(F)cc2/C1=C1/Nc2ccccc2/C1=N\OCCN1C[C@H]2C[C@@H]1CN2` [Example 9, (2Z,3E)-3-((2-((1R,4R)-2,5-diazabicyclo[2.2.1]heptan-2-yl)ethoxy)imino)-5′-fluoro-[2,3′-biindolinylidene]-2′-one]: the IC50 was determined as 1.02 nM at RET M918T, 3.87 nM on FLT3 WT, 0.785 nM on RET V804L and 0.49 nM at RET WT.

`O=C1Nc2ccc(F)cc2/C1=C1/Nc2ccccc2/C1=N\OCCN1C[C@@H]2C[C@H]1CN2` [Example 10, (2Z,3E)-3-((2-((1S,4S)-2,5-diazabicyclo[2.2.1]heptan-2-yl)ethoxy)imino)-5′-fluoro-[2,3′-biindolinylidene]-2′-one]: the IC50 amounted to 0.617 nM on RET M918T, 2.41 nM on FLT3 WT, 0.511 nM on RET V804L and 0.815 nM on RET WT.

Consider `O=C1Nc2ccc(Cl)cc2/C1=C1/Nc2ccccc2/C1=N\OCCN1C[C@H]2C[C@@H]1CN2` [Example 11, (2Z,3E)-3-((2-((1R,4R)-2,5-diazabicyclo[2.2.1]heptan-2-yl)ethoxy)imino)-5′-chloro-[2,3′-biindolinylidene]-2′-one], for which the IC50 on RET M918T was determined as 1.27 nM; at FLT3 WT, 4.57 nM; on RET V804L it was 1.02 nM; at RET WT, 1.72 nM.

For `O=C1Nc2ccc(Br)cc2/C1=C1/Nc2ccccc2/C1=N\OCCN1C[C@H]2C[C@@H]1CN2` [Example 13, (2Z,3E)-3-((2-((1R,4R)-2,5-diazabicyclo[2.2.1]heptan-2-yl)ethoxy)imino)-5′-bromo-[2,3′-biindolinylidene]-2′-one], the half-maximal inhibitory concentration (IC50) was found to be 1.03 nM on RET M918T, 4.72 nM on FLT3 WT, 0.376 nM at RET V804L and 1.31 nM on RET WT.

On to `O=C1Nc2ccccc2/C1=C1/Nc2ccccc2/C1=N\OCC(=O)N1CC2(CNC2)C1` [Example 15, (2Z,3E)-3-((2-oxo-2-(2,6-diazaspiro[3.3]heptan-2-yl)ethoxy)imino)-[2,3′-biindolinylidene]-2′-one], for which the IC50 at RET M918T turned out to be 1.08 nM; at FLT3 WT it was 3.41 nM; at RET V804L it was 0.37 nM; at RET WT, 0.664 nM.
